Data on 3 molecules can be found in patent US20070015822A1, “Methods for selectively treating COX-2 mediated disorders by administering gamma-tocopherol” (priority 2005, published 2007).

Common to all, as to assay type: in vivo, dog
Assay [1] deals with T1, COX-2 (Canis lupus familiaris, UniProt Q8SPQ9).
T1 sequence (Q8SPQ9 18-604): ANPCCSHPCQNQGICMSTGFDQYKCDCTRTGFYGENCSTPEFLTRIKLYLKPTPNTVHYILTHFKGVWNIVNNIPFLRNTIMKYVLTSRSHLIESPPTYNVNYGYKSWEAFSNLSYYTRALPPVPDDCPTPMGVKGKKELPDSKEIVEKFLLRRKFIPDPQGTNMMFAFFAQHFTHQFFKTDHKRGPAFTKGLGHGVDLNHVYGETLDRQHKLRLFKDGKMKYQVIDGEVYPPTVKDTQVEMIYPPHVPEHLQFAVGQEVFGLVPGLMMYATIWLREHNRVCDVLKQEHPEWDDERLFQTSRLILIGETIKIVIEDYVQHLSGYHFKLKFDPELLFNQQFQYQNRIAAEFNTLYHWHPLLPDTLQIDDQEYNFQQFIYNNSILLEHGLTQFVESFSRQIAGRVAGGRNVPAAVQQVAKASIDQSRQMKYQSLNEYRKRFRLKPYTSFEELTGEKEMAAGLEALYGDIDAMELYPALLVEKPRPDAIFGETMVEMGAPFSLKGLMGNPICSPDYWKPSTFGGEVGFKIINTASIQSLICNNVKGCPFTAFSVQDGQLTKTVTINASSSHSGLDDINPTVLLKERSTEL
The experiment in a line: COX-2 IC50 determination in dogs. On the set-up: from tissue. The conditions noted are these: for COX-1:COX-2: ratio of COX-1 IC50 to COX-2 IC50 (selectivity).

Assay [2] addresses T2, COX-1 (Canis lupus familiaris, UniProt Q8HZR1).
T2 construct: from tissue
T2 sequence (Q8HZR1 28-603): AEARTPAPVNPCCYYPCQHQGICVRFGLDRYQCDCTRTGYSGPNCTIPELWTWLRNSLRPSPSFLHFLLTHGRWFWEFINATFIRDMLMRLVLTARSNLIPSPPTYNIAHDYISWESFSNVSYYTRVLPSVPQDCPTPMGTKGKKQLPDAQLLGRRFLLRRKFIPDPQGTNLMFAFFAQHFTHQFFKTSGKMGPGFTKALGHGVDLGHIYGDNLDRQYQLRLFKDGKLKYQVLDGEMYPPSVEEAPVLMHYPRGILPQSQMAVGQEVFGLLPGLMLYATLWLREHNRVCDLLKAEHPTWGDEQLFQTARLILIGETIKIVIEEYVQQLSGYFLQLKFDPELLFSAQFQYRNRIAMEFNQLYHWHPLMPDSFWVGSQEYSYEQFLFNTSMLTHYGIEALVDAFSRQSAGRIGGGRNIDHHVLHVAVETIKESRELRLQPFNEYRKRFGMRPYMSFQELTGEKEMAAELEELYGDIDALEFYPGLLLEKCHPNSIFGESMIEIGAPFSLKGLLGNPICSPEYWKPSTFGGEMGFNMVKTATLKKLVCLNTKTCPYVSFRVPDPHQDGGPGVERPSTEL
The experiment in a line: COX-1 IC50 determination in dogs. The conditions noted are these: six dogs; γ-tocopherol tested as tocopherol composition comprising 66.6% gamma-tocopherol.

For assay [3], the system named is urate-induced lameness. The experiment in a line: crystal urate-induced lameness model in dogs. The settings on record: 10 or 100 mg/kg body weight, 66.4% w/w or 90.9% w/w gamma-tocopherol. The procedure:
A study was conducted to evaluate the effectiveness of the inventive formulations using the crystal urate-induced lameness model dogs. Formulations according to the invention and comprising 66.4% w/w or 90.9% w/w gamma-tocopherol and at 10 and 100 mg/kg body weight were administered to the dogs.

The mark [4] stands for this setting: six dogs, γ-tocopherol tested as tocopherol composition comprising 66.6% gamma-tocopherol, read-out: COX-2 IC50.

One may read the IC50 as the point on the concentration scale where inhibition reaches its midpoint.

Like-named read-outs stand apart in the source and are kept apart here.

As to `CC(C(=O)O)c1ccc2c(c1)[nH]c1ccc(Cl)cc12` (stereo not shown) [Carprofen], in assay [1], the IC50 was 10 µM and the “COX-1:COX-2” value came out at 7. Further, 68.6 µM corresponded to half-maximal inhibition in assay [2] (IC50).
Regarding `CC1(C)OC(=O)C(OCC2CC2)=C1c1ccc(S(C)(=O)=O)cc1` [Firocoxib], in assay [1], the “COX-1:COX-2” value was 384. For the same molecule, the IC50 in assay [1] (setting [4]) turned out to be 0.31 µM; in assay [2], 119 µM.
As to `Cc1c(O)cc2c(c1C)O[C@](C)(CCC[C@H](C)CCC[C@H](C)CCCC(C)C)CC2` [γ-Tocopherol, 3,4-dihydro-2,7,8-trimethyl-2-(4,8,12-trimethyltridecyl)-2H-1-benzyopyran-6-ol], the IC50 in assay [1] (setting [4]) is 27.8 µM. The “COX-1 IC50” value in assay [2] is reported as “No activity”. Further, in assay [3] (FIGS. 3-4), the “degree of force upon the urate-treated joints tolerated” value is given as “increased”. Moreover, in assay [3] (after 8 hours, FIGS. 1-2), the “degree of lameness (urate-induced)” value was “Improvement in the degree of lameness”.
